PubChem BioAssay AID330 (DTP/NCI, 2004)
Where “and” joins values, the source holds several entries; their conditions need not be identical. Identical values can stand only once. Inconclusive results and toxic doses are left out.

System: P388 leukemia ip, CD2F1 mice, survival T/C
Assay: NCI In Vivo Anticancer Drug Screen. Data for tumor model P388 Leukemia (intraperitoneal) in CD2F1 (CDF1) mice
Settings: endpoint: median survival time, higher = longer survival
In short: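 Mice carrying the transplanted tumor received test compound or vehicle. Survival was recorded in each group, and the value is the treated-group measurement divided by that of the vehicle-treated control group.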

[1] = dose: 12.5 mg/kg/injection, schedule: Q01DX009 (ip), vehicle: saline with Tween-80
[2] = dose: 25.0 mg/kg/injection, schedule: Q01DX009 (ip), vehicle: saline with Tween-80
[3] = dose: 50.0 mg/kg/injection, schedule: Q01DX009 (ip), vehicle: saline with Tween-80
[4] = dose: 100.0 mg/kg/injection, schedule: Q01DX009 (ip), vehicle: saline with Tween-80
[5] = dose: 200.0 mg/kg/injection, schedule: Q01DX009 (ip), vehicle: saline with Tween-80
[6] = dose: 100.0 mg/kg/injection, schedule: Q04DX003 (ip), vehicle: saline
[7] = dose: 200.0 mg/kg/injection, schedule: Q04DX003 (ip), vehicle: saline
[8] = dose: 400.0 mg/kg/injection, schedule: Q04DX003 (ip), vehicle: saline
[9] = dose: 50.0 mg/kg/injection, schedule: Q01DX009 (ip), vehicle: saline
[10] = dose: 100.0 mg/kg/injection, schedule: Q01DX009 (ip), vehicle: saline
[11] = dose: 200.0 mg/kg/injection, schedule: Q01DX009 (ip), vehicle: saline
[12] = dose: 60.0 mg/kg/injection, schedule: Q01DX005 (ip), vehicle: saline with Tween-80
[13] = dose: 120.0 mg/kg/injection, schedule: Q01DX005 (ip), vehicle: saline with Tween-80

## CC1=C(C2CO2)C(=O)c2ccccc2C1=O (configuration not stated)
dose: 1.56 mg/kg/injection, schedule: Q01DX005 (ip), vehicle: Klucel (hydroxypropylcellulose) (HPC)
  T/C: 104 % of control and 107 % of control
dose: 3.12 mg/kg/injection, schedule: Q01DX005 (ip), vehicle: Klucel (hydroxypropylcellulose) (HPC)
  T/C: 103 % of control and 104 % of control
dose: 6.25 mg/kg/injection, schedule: Q01DX005 (ip), vehicle: Klucel (hydroxypropylcellulose) (HPC)
  T/C: 99 % of control and 100 % of control and 94 % of control

## C=C(C)C1=CC(=O)C(C)(C)O1
[1]
  T/C: 106 % of control
[2]
  T/C: 105 % of control
[3]
  T/C: 102 % of control

## Cc1nn(C(=O)c2c(-c3ccccc3)noc2C)c(C)c1N=Nc1cc(C(F)(F)F)cc(C(F)(F)F)c1
[3]
  T/C: 87 % of control
[4]
  T/C: 87 % of control
[5]
  T/C: 97 % of control

## COC1C(c2cc3ccccc3oc2=O)OC2OC(C)(C)OC21 (configuration not stated)
dose: 5.0 mg/kg/injection, schedule: Q01DX001 (ip), vehicle: Klucel (hydroxypropylcellulose) (HPC)
  T/C: 97 % of control
dose: 10.0 mg/kg/injection, schedule: Q01DX001 (ip), vehicle: Klucel (hydroxypropylcellulose) (HPC)
  T/C: 101 % of control
dose: 20.0 mg/kg/injection, schedule: Q01DX001 (ip), vehicle: Klucel (hydroxypropylcellulose) (HPC)
  T/C: 100 % of control

## CN1C=CC2C(C(=O)O)CC2C1=O (configuration not stated)
dose: 100.0 mg/kg/injection, schedule: Q04DX002 (ip), vehicle: saline
  T/C: 99 % of control
dose: 200.0 mg/kg/injection, schedule: Q04DX002 (ip), vehicle: saline
  T/C: 115 % of control
dose: 400.0 mg/kg/injection, schedule: Q04DX002 (ip), vehicle: saline
  T/C: 109 % of control

## CCn1c2c(c3ccccc3c1=O)C(=O)c1ccccc1-2
dose: 50.0 mg/kg/injection, schedule: Q01DX005 (ip), vehicle: saline with Tween-80
  T/C: 103 % of control
dose: 100.0 mg/kg/injection, schedule: Q01DX005 (ip), vehicle: saline with Tween-80
  T/C: 103 % of control
dose: 200.0 mg/kg/injection, schedule: Q01DX005 (ip), vehicle: saline with Tween-80
  T/C: 94 % of control

## O=C1CC(c2cccc(S(=O)(=O)O)c2)=NN1c1ccc([N+](=O)[O-])cn1
[6]
  T/C: 108 % of control
[7]
  T/C: 100 % of control
[8]
  T/C: 106 % of control

## CC(Nc1cccc(Cl)c1)S(=O)(=O)O (configuration not stated)
[9]
  T/C: 100 % of control
[10]
  T/C: 100 % of control
[11]
  T/C: 94 % of control

## O=C(OCCOCCN1CCCCC1)C1c2ccccc2Sc2ccc(Cl)cc21 (configuration not stated)
dose: 12.5 mg/kg/injection, schedule: Q01DX005 (ip), vehicle: saline
  T/C: 100 % of control
dose: 25.0 mg/kg/injection, schedule: Q01DX005 (ip), vehicle: saline
  T/C: 105 % of control
dose: 50.0 mg/kg/injection, schedule: Q01DX005 (ip), vehicle: saline
  T/C: 100 % of control and 98 % of control

## COC1OC2COc3ccccc3OC2C(NC#N)C1OC (configuration not stated)
dose: 60.0 mg/kg/injection, schedule: Q01DX005 (ip), vehicle: Klucel (hydroxypropylcellulose) (HPC)
  T/C: 112 % of control
dose: 120.0 mg/kg/injection, schedule: Q01DX005 (ip), vehicle: Klucel (hydroxypropylcellulose) (HPC)
  T/C: 108 % of control
dose: 240.0 mg/kg/injection, schedule: Q01DX005 (ip), vehicle: Klucel (hydroxypropylcellulose) (HPC)
  T/C: 107 % of control

## CCCCC(=O)NN
[1]
  T/C: 96 % of control
[2]
  T/C: 102 % of control
[3]
  T/C: 102 % of control

## Cc1ccc(C)c2c1C(=O)c1c(C)ccc(C)c1C2(O)C#Cc1ccccc1
[3]
  T/C: 98 % of control
[4]
  T/C: 89 % of control
[5]
  T/C: 89 % of control

## CSc1ccc(NC(=O)n2nnc3ccccc32)cc1
dose: 6.25 mg/kg/injection, schedule: Q01DX009 (ip), vehicle: Klucel (hydroxypropylcellulose) (HPC)
  T/C: 103 % of control and 106 % of control
dose: 12.5 mg/kg/injection, schedule: Q01DX009 (ip), vehicle: Klucel (hydroxypropylcellulose) (HPC)
  T/C: 102 % of control and 110 % of control
dose: 25.0 mg/kg/injection, schedule: Q01DX009 (ip), vehicle: Klucel (hydroxypropylcellulose) (HPC)
  T/C: 100 % of control and 111 % of control
dose: 50.0 mg/kg/injection, schedule: Q01DX009 (ip), vehicle: Klucel (hydroxypropylcellulose) (HPC)
  T/C: 105 % of control and 109 % of control and 120 % of control
dose: 100.0 mg/kg/injection, schedule: Q01DX009 (ip), vehicle: Klucel (hydroxypropylcellulose) (HPC)
  T/C: 105 % of control and 117 % of control and 124 % of control
dose: 200.0 mg/kg/injection, schedule: Q01DX009 (ip), vehicle: Klucel (hydroxypropylcellulose) (HPC)
  T/C: 106 % of control and 97 % of control

## O=C1OC(=O)C2C3C=CC(C3)C12 (configuration not stated)
dose: 12.5 mg/kg/injection, schedule: Q01DX009 (ip), vehicle: saline sonified
  T/C: 100 % of control
dose: 25.0 mg/kg/injection, schedule: Q01DX009 (ip), vehicle: saline sonified
  T/C: 100 % of control
dose: 50.0 mg/kg/injection, schedule: Q01DX009 (ip), vehicle: saline sonified
  T/C: 100 % of control

## CSC(=S)NN=C(c1ccccc1)c1ccccc1
dose: 0.78 mg/kg/injection, schedule: Q01DX009 (ip), vehicle: saline
  T/C: 102 % of control
dose: 1.56 mg/kg/injection, schedule: Q01DX009 (ip), vehicle: saline
  T/C: 102 % of control
dose: 3.12 mg/kg/injection, schedule: Q01DX009 (ip), vehicle: saline
  T/C: 100 % of control
[10]
  T/C: 113 % of control
[11]
  T/C: 96 % of control

## O=C(S)CC(O)(c1ccccc1)c1ccccc1
dose: 100.0 mg/kg/injection, schedule: Q04DX003 (ip), vehicle: Klucel (hydroxypropylcellulose) (HPC)
  T/C: 105 % of control
dose: 200.0 mg/kg/injection, schedule: Q04DX003 (ip), vehicle: Klucel (hydroxypropylcellulose) (HPC)
  T/C: 105 % of control
dose: 400.0 mg/kg/injection, schedule: Q04DX003 (ip), vehicle: Klucel (hydroxypropylcellulose) (HPC)
  T/C: 101 % of control

## COc1ccc(COC(=O)Sc2nc(C)cc(C)n2)cc1
dose: 50.0 mg/kg/injection, schedule: Q01DX005 (ip), vehicle: Klucel (hydroxypropylcellulose) (HPC)
  T/C: 101 % of control
dose: 100.0 mg/kg/injection, schedule: Q01DX005 (ip), vehicle: Klucel (hydroxypropylcellulose) (HPC)
  T/C: 100 % of control
dose: 200.0 mg/kg/injection, schedule: Q01DX005 (ip), vehicle: Klucel (hydroxypropylcellulose) (HPC)
  T/C: 102 % of control

## S=C(Nc1cc(Cl)cc(Cl)c1)SCc1ccccc1
[9]
  T/C: 100 % of control
[10]
  T/C: 99 % of control
[11]
  T/C: 107 % of control

## O=P(NC1CCCC1)(N1CC1)N1CC1
dose: 2.0 mg/kg/injection, schedule: Q04DX003 (ip), vehicle: saline
  T/C: 110 % of control
dose: 2.66 mg/kg/injection, schedule: Q01DX009 (ip), vehicle: saline
  T/C: 154 % of control
dose: 4.0 mg/kg/injection, schedule: Q01DX009 (ip), vehicle: saline
  T/C: 209 % of control
dose: 4.0 mg/kg/injection, schedule: Q04DX003 (ip), vehicle: saline
  T/C: 120 % of control
dose: 6.0 mg/kg/injection, schedule: Q01DX009 (ip), vehicle: saline
  T/C: 118 % of control
dose: 8.0 mg/kg/injection, schedule: Q04DX003 (ip), vehicle: saline
  T/C: 200 % of control
dose: 9.0 mg/kg/injection, schedule: Q01DX009 (ip), vehicle: saline
  T/C: 100 % of control

## CSC1(C)C(=O)Nc2cc([N+](=O)[O-])ccc21 (configuration not stated)
[2]
  T/C: 100 % of control
[3]
  T/C: 99 % of control
[4]
  T/C: 113 % of control

## C/C(=N\N=C(/[Se])N1CCC1)c1ccccn1
dose: 12.5 mg/kg/injection, schedule: Q04DX003 (ip), vehicle: Klucel (hydroxypropylcellulose) (HPC)
  T/C: 106 % of control
dose: 25.0 mg/kg/injection, schedule: Q04DX003 (ip), vehicle: Klucel (hydroxypropylcellulose) (HPC)
  T/C: 104 % of control

## CCOC(=O)C1CCC(=O)N1Cc1c[nH]c2ccccc12 (configuration not stated)
[12]
  T/C: 92 % of control
[13]
  T/C: 94 % of control
dose: 240.0 mg/kg/injection, schedule: Q01DX005 (ip), vehicle: saline with Tween-80
  T/C: 94 % of control

## O=C(O)c1cccnn1
[3]
  T/C: 90 % of control
[4]
  T/C: 90 % of control

## Cc1cc(N2CCOCC2)n2c(nc3ccccc32)c1C#N
[12]
  T/C: 96 % of control
[13]
  T/C: 100 % of control

## C=C1C(=O)C23C(O)CC4C(C)(C)C(OC(C)=O)C(OC(C)=O)CC4(C)C2CCC1C3O (configuration not stated)
dose: 11.88 mg/kg/injection, schedule: Q01DX005 (ip), vehicle: Klucel (hydroxypropylcellulose) (HPC)
  T/C: 115 % of control
dose: 23.75 mg/kg/injection, schedule: Q01DX005 (ip), vehicle: Klucel (hydroxypropylcellulose) (HPC)
  T/C: 112 % of control
dose: 47.5 mg/kg/injection, schedule: Q01DX005 (ip), vehicle: Klucel (hydroxypropylcellulose) (HPC)
  T/C: 112 % of control

## CC(=O)OCC(=O)[C@@]1(O)CC[C@H]2[C@@H]3C[C@H](F)C4=CC(=O)CC[C@]4(C)[C@H]3[C@@H](O)C[C@@]21C
[6]
  T/C: 104 % of control
[7]
  T/C: 100 % of control
[8]
  T/C: 95 % of control

## O=C(N/N=C/c1ccc(/C=N/NC(=O)c2cccnc2)cc1)c1cccnc1
[3]
  T/C: 102 % of control
[4]
  T/C: 96 % of control
[5]
  T/C: 93 % of control
